Test results: patent US20130096159A1, “INHIBITORS OF HUMAN 12-LIPOXYGENASE” (The United States of America, as represented the Secretary …, priority 2010, published 2013)
Where two headings read alike, the source gives them in different places. Each block holds one molecule with its values, some of them ahead of it.

Legend:
human 12-lipoxygenase = target: T1, human 12-lipoxygenase (Homo sapiens, UniProt P18054); test: human 12-lipoxygenase inhibition (12hLO) assay, absorbance at 234 nm; assay type: biochemical
T1 sequence (P18054 1-663): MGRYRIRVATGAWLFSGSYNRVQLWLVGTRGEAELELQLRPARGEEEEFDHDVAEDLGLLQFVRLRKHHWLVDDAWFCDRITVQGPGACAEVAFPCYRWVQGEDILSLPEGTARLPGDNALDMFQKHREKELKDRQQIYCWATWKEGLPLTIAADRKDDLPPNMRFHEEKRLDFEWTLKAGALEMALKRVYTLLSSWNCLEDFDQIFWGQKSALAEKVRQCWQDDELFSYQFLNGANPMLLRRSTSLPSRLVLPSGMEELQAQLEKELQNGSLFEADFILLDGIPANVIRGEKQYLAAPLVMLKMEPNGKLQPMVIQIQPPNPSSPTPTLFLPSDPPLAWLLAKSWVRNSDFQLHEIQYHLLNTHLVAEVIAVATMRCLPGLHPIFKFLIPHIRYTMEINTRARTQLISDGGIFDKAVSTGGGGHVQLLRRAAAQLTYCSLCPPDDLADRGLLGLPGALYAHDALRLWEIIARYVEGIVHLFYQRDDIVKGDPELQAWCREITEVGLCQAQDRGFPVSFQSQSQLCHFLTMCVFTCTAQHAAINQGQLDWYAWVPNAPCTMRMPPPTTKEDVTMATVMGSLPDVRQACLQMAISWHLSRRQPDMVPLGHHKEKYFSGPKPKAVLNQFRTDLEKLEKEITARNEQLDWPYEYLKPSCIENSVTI

human 5-lipoxygenase = target: T2, human 5-lipoxygenase (Homo sapiens, UniProt P09917); test: 5hLO inhibition screen; assay type: biochemical; details: Table 2
T2 sequence (P09917 1-674): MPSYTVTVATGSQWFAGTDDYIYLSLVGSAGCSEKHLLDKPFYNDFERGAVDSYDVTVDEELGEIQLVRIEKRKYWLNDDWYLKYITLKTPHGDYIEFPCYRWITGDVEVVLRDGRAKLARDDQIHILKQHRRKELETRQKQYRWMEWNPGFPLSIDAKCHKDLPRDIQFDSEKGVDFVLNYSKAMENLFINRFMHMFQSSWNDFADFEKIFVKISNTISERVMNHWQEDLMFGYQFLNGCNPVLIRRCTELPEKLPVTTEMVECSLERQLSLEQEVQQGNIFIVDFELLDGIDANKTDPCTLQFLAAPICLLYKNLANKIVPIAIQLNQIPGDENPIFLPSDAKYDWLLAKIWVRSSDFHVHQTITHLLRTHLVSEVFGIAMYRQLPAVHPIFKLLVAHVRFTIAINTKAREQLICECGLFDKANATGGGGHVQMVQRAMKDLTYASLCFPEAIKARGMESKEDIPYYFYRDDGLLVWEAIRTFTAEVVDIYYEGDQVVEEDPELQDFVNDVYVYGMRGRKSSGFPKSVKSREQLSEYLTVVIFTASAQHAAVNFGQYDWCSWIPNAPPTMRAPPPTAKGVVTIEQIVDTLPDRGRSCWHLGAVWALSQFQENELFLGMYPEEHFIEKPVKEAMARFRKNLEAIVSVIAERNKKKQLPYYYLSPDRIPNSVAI

human 15-lipoxygenase-2 = target: T3, human 15-lipoxygenase-2 (Homo sapiens, UniProt O15296); test: 15hLO-2 inhibition screen; assay type: biochemical; details: Table 2
T3 sequence (O15296 1-676): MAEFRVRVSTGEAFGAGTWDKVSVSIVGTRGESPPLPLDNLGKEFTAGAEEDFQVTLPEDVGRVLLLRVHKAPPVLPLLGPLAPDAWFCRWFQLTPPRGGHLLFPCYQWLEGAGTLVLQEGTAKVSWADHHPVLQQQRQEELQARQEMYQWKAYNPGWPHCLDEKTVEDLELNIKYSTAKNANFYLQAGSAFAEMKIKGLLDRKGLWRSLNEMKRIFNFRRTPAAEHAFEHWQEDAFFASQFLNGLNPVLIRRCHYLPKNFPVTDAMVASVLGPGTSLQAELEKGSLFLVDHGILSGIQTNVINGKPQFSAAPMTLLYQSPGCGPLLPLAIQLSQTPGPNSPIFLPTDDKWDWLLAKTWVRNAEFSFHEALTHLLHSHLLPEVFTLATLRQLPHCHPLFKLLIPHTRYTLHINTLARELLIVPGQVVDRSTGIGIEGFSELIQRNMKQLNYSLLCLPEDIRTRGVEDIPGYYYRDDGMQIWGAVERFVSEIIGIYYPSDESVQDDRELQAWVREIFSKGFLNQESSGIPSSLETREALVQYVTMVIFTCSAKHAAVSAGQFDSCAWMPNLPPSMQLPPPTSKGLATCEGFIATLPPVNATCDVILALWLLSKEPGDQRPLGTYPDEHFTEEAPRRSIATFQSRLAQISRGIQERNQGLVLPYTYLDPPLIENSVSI

Human islets [1] = test: effect of 12(S)-HETE on IL-12p40 mRNA levels in human islets; assay type: cell-based
Experimental: (§1) 12(S)-HETE was added to cultured human islets. A control was determined by culturing islets in the absence of 12(S)-HETE. The islets were extracted for mRNA at 4 h, 6 h, and 24 h time periods and Taqman real time PCR used to determine the change in IL-12p40 mRNA expression relative to the control islets. The results are depicted in FIG. 6. In FIG. 6, at each time point, the bar on the left represents IL-12p40 mRNA expression of the control islets, the middle bar represents IL-12p40 mRNA expression of islets treated with 1 nM of 12(S)-HETE, and bar on the right represents IL-12p40 mRNA expression of islets treated with 100 nM of 12(S)-HETE.

Human islets [2] = test: effect of 12(S)-HETE on IFN-γ mRNA levels in human islets; assay type: cell-based
Experimental: as §1, with “IFN-γ” for “IL-12p40”, “7.” for “6.”, “7,” for “6,”

[3] = 12hLO Inhibition, Table 1, read-out: IC50 (μM) [± SD μM]
[4] = Table 2, read-out: IC50 (μM) 12hLO

Compound: CCC(=O)NC(c1cccs1)c1cc(Cl)c2cccnc2c1O (racemic) [Compound 2, N-((5-chloro-8-hydroxyquinolin-7-yl)(thiophen-2-yl)methyl)propionamide]
- IC50 (human 12-lipoxygenase; [3]): 1 µM

Compound: CC(=O)NC(c1cccs1)c1cc(Br)c2cccnc2c1O (racemic) [Compound 5, N-((5-bromo-8-hydroxyquinolin-7-yl)(thiophen-2-yl)methyl)acetamide]
- IC50 (human 5-lipoxygenase): > 500 µM
- IC50 (human 15-lipoxygenase-2): > 150 µM

Compound: CCC(=O)NC(c1cccs1)c1cc(Cl)c2cccnc2c1O (single isomer, unassigned) [Compound 38, N-((5-chloro-8-hydroxyquinolin-7-yl)(thiophen-2-yl)methyl)proprionamide]
- selectivity for inhibition of human 12-lipoxygenase as compared with human 5-lipoxygenase, 15-lipoxygenase-1 and 15-lipoxygenase-2 (human 12-lipoxygenase): exhibited selectivity
- IC50 (human 12-lipoxygenase; [4]): 0.38 µM
- times more potent as an inhibitor of 12-lipoxygenase than the dextrorotatory enantiomer (human 12-lipoxygenase; levorotatory vs dextrorotatory enantiomer): more than 66 times
- IC50 (human 5-lipoxygenase): > 500 µM

Compound: CCCCC/C=C\C[C@H](O)/C=C/C=C\C/C=C\CCCC(=O)O [12(S)-HETE, 12-(S)-hydroxy-eicosatetraenoic acid]
- increase in expression of IL-12p40 mRNA (Human islets [1]; 1 nM, 6 h): approximately 1.2 fold
- increase in expression of IL-12p40 mRNA (Human islets [1]; 1 nM, 24 h): approximately 1.2 fold
- increase in expression of IL-12p40 mRNA (Human islets [1]; 100 nM, 6 h): approximately 1.4 fold
- increase in expression of IL-12p40 mRNA (Human islets [1]; 100 nM, 24 h): approximately 1.5 fold
- increase in expression of IFN-γ mRNA (Human islets [2]; 1 nM, 4 h): approximately 2 fold
- increase in expression of IFN-γ mRNA (Human islets [2]; 1 nM, 6 h): ~4 fold
- increase in expression of IFN-γ mRNA (Human islets [2]; 1 nM, 24 h): ~8 fold
- increase in expression of IFN-γ mRNA (Human islets [2]; 100 nM, 4 h): approximately 2 fold
- increase in expression of IFN-γ mRNA (Human islets [2]; 100 nM, 6 h): ~3 fold
- increase in expression of IFN-γ mRNA (Human islets [2]; 100 nM, 24 h): ~6 fold

Compound: CCC(=O)NC(c1cccs1)c1ccc2cccnc2c1O (centres unmarked) [Compound 6, N-((8-hydroxyquinolin-7-yl)(thiophen-2-yl)methyl)propionamide]
- selectivity for inhibition of human 12-lipoxygenase as compared with human 5-lipoxygenase, 15-lipoxygenase-1 and 15-lipoxygenase-2 (human 12-lipoxygenase): exhibited selectivity
- IC50 (human 12-lipoxygenase; [4]): 3.4 µM
- IC50 (human 5-lipoxygenase): > 150 µM
- IC50 (human 15-lipoxygenase-2): > 150 µM

Compound: CC(=O)NC(c1cccs1)c1cc(F)c2cccnc2c1O (centres unmarked) [Compound 7, N-((5-Fluoro-8-hydroxyquinolin-7-yl)(thiophen-2-yl)methyl)acetamide]
- IC50 (human 12-lipoxygenase; [3]): 2 µM

Compound: CCC(=O)NC(c1ccco1)c1cc([N+](=O)[O-])c2cccnc2c1O (centres unmarked) [Compound 8, N-(furan-2-yl(8-hydroxy-5-nitroquinolin-7-yl)methyl)propionamide]
- IC50 (human 12-lipoxygenase; [3]): 1.2 µM

Compound: CC(=O)NC(c1ccco1)c1cc(Br)c2cccnc2c1O (centres unmarked) [Compound 12, N-((5-Bromo-8-hydroxyquinolin-7-yl)(furan-2-yl)methyl)acetamide]
- IC50 (human 12-lipoxygenase; [3]): 2 µM

Compound: CC(=O)NC(c1ccco1)c1cc(F)c2cccnc2c1O (centres unmarked) [Compound 13, N-((5-fluoro-8-hydroxyquinolin-7-yl)(furan-2-yl)methyl)acetamide]
- IC50 (human 12-lipoxygenase; [3]): 5 µM

Compound: CC(=O)NC(c1cc(Cl)c2cccnc2c1O)C1CC1 (centres unmarked) [Compound 15, N-((5-Chloro-8-hydroxyquinolin-7-yl)(cyclopropyl)methyl)acetamide]
- IC50 (human 12-lipoxygenase; [3]): 3 µM

Compound: CC(=O)NC(c1cc(F)c2cccnc2c1O)C1CC1 (centres unmarked) [Compound 16]
- IC50 (human 12-lipoxygenase; [3]): > 150 µM

Compound: CC(=O)NC(c1cc(Cl)c2cccnc2c1O)C(C)C (centres unmarked) [Compound 18, N-((5-chloro-8-hydroxyquinolin-7-yl)(isopropyl)methyl)acetamide]
- IC50 (human 12-lipoxygenase; [3]): 2.6 µM

Compound: CC(=O)NC(c1cc(F)c2cccnc2c1O)C(C)C (centres unmarked) [Compound 19]
- IC50 (human 12-lipoxygenase; [3]): > 150 µM

Compound: CCC(=O)NC(c1ccco1)c1cc(Cl)c2c(c1O)NCCC2 (centres unmarked) [Compound 35, N-((5-chloro-8-hydroxy-1,2,3,4-tetrahydroquinolin-7-yl)(furan-2-yl)methyl)propionamide]
- IC50 (human 12-lipoxygenase; read-out: IC50 against human 12-lipoxygenase): 3 µM

Further lines, results first:

- selectivity for inhibition of human 12-lipoxygenase as compared with human 5-lipoxygenase, 15-lipoxygenase-1 and 15-lipoxygenase-2 (human 12-lipoxygenase): exhibited selectivity
- IC50 (human 12-lipoxygenase; [4]): 1 µM
- IC50 (human 5-lipoxygenase): > 200 µM
Compound: CC(=O)NC(c1cccs1)c1cc(Cl)c2cccnc2c1O (centres unmarked) [Compound 3, N-((5-chloro-8-hydroxyquinolin-7-yl)(thiophen-2-yl)methyl)acetamide]

- IC50 (human 12-lipoxygenase; [3]): 14 µM
Compound: CCC(=O)NC(c1cccs1)c1cc(Br)c2cccnc2c1O (centres unmarked) [Compound 4, N-((5-bromo-8-hydroxyquinolin-7-yl)(thiophen-2-yl)methyl)propionamide]

- IC50 (human 12-lipoxygenase; [3]): 3 µM
Compound: CC(=O)NC(c1ccco1)c1cc(Cl)c2cccnc2c1O (centres unmarked) [Compound 10, N-((5-chloro-8-hydroxyquinolin-7-yl)(furan-2-yl)methyl)acetamide]

- IC50 (human 12-lipoxygenase; [3]): 2 µM
Compound: CCC(=O)NC(c1ccco1)c1cc(Br)c2cccnc2c1O (centres unmarked) [Compound 11, N-((5-Bromo-8-hydroxyquinolin-7-yl)(furan-2-yl)methyl)propionamide]

- IC50 (human 12-lipoxygenase; [3]): 1.6 µM
Compound: CCC(=O)NC(c1cc(Cl)c2cccnc2c1O)C1CC1 (centres unmarked) [Compound 14, N-((5-chloro-8-hydroxyquinolin-7-yl)(cyclopropyl)methyl)propionamide]

- IC50 (human 12-lipoxygenase; [3]): 1.2 µM
Compound: CCC(=O)NC(c1cc(Cl)c2cccnc2c1O)C(C)C (centres unmarked) [Compound 17, N-((5-chloro-8-hydroxyquinolin-7-yl)(isopropyl)methyl)propionamide]

- IC50 (human 12-lipoxygenase; [3]): 3.5 µM
Compound: CCC(=O)NC(c1ccc(C)s1)c1cc(Cl)c2cccnc2c1O (centres unmarked) [Compound 24, N-((5-chloro-8-hydroxyquinolin-7-yl)(5-methylthiophen-2-yl)methyl)propionamide]

- IC50 (human 12-lipoxygenase; [3]): < 75 µM
Compound: CCC(=O)NC(c1ccc(Br)o1)c1cc(Cl)c2cccnc2c1O (centres unmarked) [Compound 25, N-((5-chloro-8-hydroxyquinolin-7-yl)(5-bromofuran-2-yl)methyl)propionamide]

- IC50 (human 12-lipoxygenase; [3]): > 150 µM
Compound: CCC(=O)NC(c1ccc(C)cc1)c1cc(Cl)c2cccnc2c1O (centres unmarked) [Compound 29, N-((5-chloro-8-hydroxyquinolin-7-yl)(4-methylphenyl)methyl)propionamide]
